Measurements: US20250066339A1, “HETEROCYCLE-SUBSTITUTED AROMATIC COMPOUND, METHOD FOR PREPARING SAME, HERBICIDAL COMPOSITION, AND USE THEREOF” (QINGDAO KINGAGROOT CHEMICAL COMPOUND CO., LTD., priority 2022, published 2025)

How the values were obtained:
Experiment in all cases: Post-emergence test on weeds
Assay type in all cases: in vivo
Set-up in all cases: key: Level 10: completely dead; Level 9: growth control rate greater than or equal to 90% and less than 100%; Level 8: growth control rate greater than or equal to 80% and less than 90%; Level 7: growth control rate greater than or equal to 70% and less than 80%; Level 6: growth control rate greater than or equal to 60% and less than 70%; Level 5: growth control rate greater than or equal to 50% and less than 60%; Level 4: growth control rate greater than or equal to 40% and less than 50%; Level 3: growth control rate greater than or equal to 30% and less than 40%; Level 2: growth control rate greater than or equal to 20% and less than 30%; Level 1: growth control rate less than 20%; Level 0: no effect
Settings in all cases: 3 weeks after application, fresh weight control rate
[1] = tested on: Echinochloa crus-galli
Description: (§1) The activity level criteria for plant damage (i.e., growth control rate) are as follows: • Level 10: completely dead; • Level 9: growth control rate greater than or equal to 90% and less than 100%; • Level 8: growth control rate greater than or equal to 80% and less than 90%; • Level 7: growth control rate greater than or equal to 70% and less than 80%; • Level 6: growth control rate greater than or equal to 60% and less than 70%; • Level 5: growth control rate greater than or equal to 50% and less than 60%; • Level 4: growth control rate greater than or equal to 40% and less than 50%; • Level 3: growth control rate greater than or equal to 30% and less than 40%; • Level 2: growth control rate greater than or equal to 20% and less than 30%; • Level 1: growth control rate less than 20%; • Level 0: no effect.
(§2) The above growth control rates are fresh weight control rates.
(§3) Monocotyledonous and dicotyledonous weed seeds (Descurainia sophia, Capsella bursa-pastoris, Abutilon theophrasti, Galium spurium, Stellaria media, Lithospermum arvense, Rorippa indica, Alopecurus aequalis, Alopecurus japonicus, Eleusine indica, Beckmannia syzigachne, Sclerochloa dura, Erigeron canadensis, Phleum paniculatum, Veronica polita, Bromus japonicus, Aegilops tauschii, Phalaris arundinacea, Amaranthus retroflexus, Chenopodium, Commelina communis, Cichorium endivia, Convolvulus arvensis, Cirsium arvense, Solanum nigrum, Acalypha australis, Digitaria sanguinalis, Echinochloa crus-galli, Setaria viridis, Setaria pumila, Leptochloa chinensis, Monochoria vaginalis, Sagittaria trifolia, Schoenoplectiella juncoides, Cyperus rotundus, Cyperus iria, Cyperus difformis, Fimbristylis, Portulaca oleracea, Xanthium sibiricum, Ipomoea nil, Eschenbachia japonica, etc.) and major crop seeds (wheat, maize, paddy rice, soybean, cotton, oilseed rape, millet, sorghum, potato, sesame, castor plant, etc.) were placed in plastic pots filled with soil and then covered with 0.5-2 cm of soil to allow them to grow in a favorable greenhouse environment. Two weeks after sowing, the test plants were treated at the stage of 2-3 leaves. The test compounds of the present invention were individually dissolved with acetone, then added with Tween® 80, with 1.5 L/ha of methyl oleate emulsifiable concentrate as a synergist, diluted into solutions of certain concentrations using certain amount of water, and sprayed to the plants using a spray tower. After drug application, the experimental results on weeds were collected after 3 weeks of cultivation in a greenhouse. The compounds were applied at 500, 250, 125, 60, 15, and 7.5 g a.i./ha in triplicate, and the results were averaged.

[2] = tested on: Abutilon theophrasti
Description: as §1, §2, §3

[3] = tested on: Veronica polita
Description: as §1, §2, §3

[4] = tested on: Setaria viridis
Description: as §1, §2, §3

[5] = tested on: Digitaria sanguinalis
Description: as §1, §2, §3

[6] = tested on: Amaranthus retroflexus
Description: as §1, §2, §3

Cc1ccc(/C=N/OC(=O)C2(C)CC(c3cc(-c4ncc(C(F)(F)F)cc4Cl)c(F)cc3Cl)=NO2)s1 (stereo not drawn) [Compound 73]
10: activity level (growth control rate) Echinochloa crus-galli ([1]; 60 g a.i./ha) | activity level (growth control rate) Abutilon theophrasti ([2]; 60 g a.i./ha) | activity level (growth control rate) Veronica polita ([3]; 60 g a.i./ha) | activity level (growth control rate) Setaria viridis ([4]; 60 g a.i./ha) | activity level (growth control rate) Digitaria sanguinalis ([5]; 60 g a.i./ha) | activity level (growth control rate) Amaranthus retroflexus ([6]; 60 g a.i./ha)

C=C(C)c1cnc(-c2cc(C3=NOC(C)(C(=O)OCSC)C3)c(Cl)cc2F)c(Cl)c1 (stereo not drawn) [Compound 104]
10: activity level (growth control rate) Echinochloa crus-galli ([1]; 60 g a.i./ha) | activity level (growth control rate) Abutilon theophrasti ([2]; 60 g a.i./ha) | activity level (growth control rate) Veronica polita ([3]; 60 g a.i./ha) | activity level (growth control rate) Setaria viridis ([4]; 60 g a.i./ha) | activity level (growth control rate) Digitaria sanguinalis ([5]; 60 g a.i./ha) | activity level (growth control rate) Amaranthus retroflexus ([6]; 60 g a.i./ha)

CC(C)=NOC(=O)C1(C2CC2)CC(c2cc(-c3ncc(C(F)(F)F)cc3Cl)c(F)cc2Cl)=NO1 (stereo not drawn) [Compound 129]
10: activity level (growth control rate) Echinochloa crus-galli ([1]; 60 g a.i./ha) | activity level (growth control rate) Abutilon theophrasti ([2]; 60 g a.i./ha) | activity level (growth control rate) Veronica polita ([3]; 60 g a.i./ha) | activity level (growth control rate) Setaria viridis ([4]; 60 g a.i./ha) | activity level (growth control rate) Digitaria sanguinalis ([5]; 60 g a.i./ha) | activity level (growth control rate) Amaranthus retroflexus ([6]; 60 g a.i./ha)

CC1(C(=O)ON=C2CCCC2)CC(c2cc(-c3ncc(C(F)(F)F)cc3Cl)c(F)cc2Cl)=NO1 (stereo not drawn) [Compound 74]
10: activity level (growth control rate) Echinochloa crus-galli ([1]; 60 g a.i./ha) | activity level (growth control rate) Abutilon theophrasti ([2]; 60 g a.i./ha) | activity level (growth control rate) Veronica polita ([3]; 60 g a.i./ha) | activity level (growth control rate) Setaria viridis ([4]; 60 g a.i./ha) | activity level (growth control rate) Digitaria sanguinalis ([5]; 60 g a.i./ha) | activity level (growth control rate) Amaranthus retroflexus ([6]; 60 g a.i./ha)

COCOC(=O)C1(C)CC(c2cc(-c3ncc(C(F)(F)F)cc3Cl)c(F)cc2Cl)=NO1 (stereo not drawn) [Compound 49]
10: activity level (growth control rate) Echinochloa crus-galli ([1]; 15 g a.i./ha) | activity level (growth control rate) Abutilon theophrasti ([2]; 15 g a.i./ha) | activity level (growth control rate) Veronica polita ([3]; 15 g a.i./ha) | activity level (growth control rate) Setaria viridis ([4]; 15 g a.i./ha) | activity level (growth control rate) Digitaria sanguinalis ([5]; 15 g a.i./ha) | activity level (growth control rate) Amaranthus retroflexus ([6]; 15 g a.i./ha)

CCOC(=O)C1(C)CC(c2cc(-c3ncc(OC)cc3Cl)c(F)cc2Cl)=NO1 (stereo not drawn) [Compound 102]
10: activity level (growth control rate) Echinochloa crus-galli ([1]; 60 g a.i./ha) | activity level (growth control rate) Abutilon theophrasti ([2]; 60 g a.i./ha) | activity level (growth control rate) Veronica polita ([3]; 60 g a.i./ha) | activity level (growth control rate) Setaria viridis ([4]; 60 g a.i./ha) | activity level (growth control rate) Digitaria sanguinalis ([5]; 60 g a.i./ha) | activity level (growth control rate) Amaranthus retroflexus ([6]; 60 g a.i./ha)

CCOC(=O)CCC1(C)CC(c2cc(-c3ncc(C(F)(F)F)cc3Cl)c(F)cc2Cl)=NO1 (stereo not drawn) [Compound 76]
10: activity level (growth control rate) Echinochloa crus-galli ([1]; 15 g a.i./ha) | activity level (growth control rate) Abutilon theophrasti ([2]; 15 g a.i./ha) | activity level (growth control rate) Veronica polita ([3]; 15 g a.i./ha) | activity level (growth control rate) Setaria viridis ([4]; 15 g a.i./ha) | activity level (growth control rate) Digitaria sanguinalis ([5]; 15 g a.i./ha) | activity level (growth control rate) Amaranthus retroflexus ([6]; 15 g a.i./ha)

CC1(C(=O)ON=C(c2ccccc2)c2ccccc2)CC(c2cc(-c3ncc(C(F)(F)F)cc3Cl)c(F)cc2Cl)=NO1 (stereo not drawn) [Compound 71]
10: activity level (growth control rate) Echinochloa crus-galli ([1]; 60 g a.i./ha) | activity level (growth control rate) Abutilon theophrasti ([2]; 60 g a.i./ha) | activity level (growth control rate) Veronica polita ([3]; 60 g a.i./ha) | activity level (growth control rate) Setaria viridis ([4]; 60 g a.i./ha) | activity level (growth control rate) Digitaria sanguinalis ([5]; 60 g a.i./ha) | activity level (growth control rate) Amaranthus retroflexus ([6]; 60 g a.i./ha)

CCOC(=O)/C(C)=N/OC(=O)C1(C)CC(c2cc(-c3ncc(C(F)(F)F)cc3Cl)c(F)cc2Cl)=NO1 (stereo not drawn) [Compound 70]
10: activity level (growth control rate) Echinochloa crus-galli ([1]; 60 g a.i./ha) | activity level (growth control rate) Abutilon theophrasti ([2]; 60 g a.i./ha) | activity level (growth control rate) Veronica polita ([3]; 60 g a.i./ha) | activity level (growth control rate) Setaria viridis ([4]; 60 g a.i./ha) | activity level (growth control rate) Digitaria sanguinalis ([5]; 60 g a.i./ha) | activity level (growth control rate) Amaranthus retroflexus ([6]; 60 g a.i./ha)
